Assay results taken from patent US20020183327A1, “Bicyclic imidazo-3-yl-amine derivatives substituted on the 6-membered ring” (GRUENENTHAL GMBH., priority 1999, published 2002).

system: α2-subtype of the human α-adrenergic receptor; assay: SPA assay, affinity for the α2-subtype of the human α-adrenergic receptor; type: binding; conditions: at a concentration of 10 μM
Protocol: The affinity for the α2-subtype of the human α-adrenergic receptor was determined by means of a SPA assay conventionally used for high throughput screening as described in John P. Devlin, High Throughput Screening, Marcel Dekker Inc. 1997, pp. 307 to 316. This literature is introduced here as a reference and thus forms part of the disclosure. At a concentration of 10 μM, the following affinities for the listed examples were determined: […]

Row | Compound | α2-affinity, 10 μM
1 | Cc1ccn2c(NC3CCCCC3)c(C)nc2c1 [Example 18, cyclohexyl-(2,7-dimethylimidazo[1,2-a]pyridin-3-yl)-amine] | 74%
2 | Cc1nc2c(OCc3ccccc3)cccn2c1NC(C)(C)CC(C)(C)C [Example 29, (8-benzyloxy-2-methylimidazo[1,2-a]pyridin-3-yl)-(1,1,3,3-tetramethylbutyl)-amine] | 100%
3 | [C-]#[N+]CCCCCCNc1c(-c2ccc(OC)c(OC)c2)nc2cc(C)ccn12 [Example 24, [2-(3,4-dimethoxyphenyl)-7-methylimidazo[1,2-a]pyridin-3-yl]-(6-isocyanohexyl)-amine] | 75%
4 | CC(=O)N(c1c(-c2ccco2)nc2c(Cl)cc(Cl)cn12)C1CCCCC1 [Example 33, N-cylcohexyl-N-(6,8-dichloro-2-furan-2-yl-imidazo[1,2-a]pyridin-3-yl)-acetamide] | 73%
5 | [C-]#[N+]CCCCCCNc1c(-c2ccc(OC)c(OC)c2)nc2ccc(C)cn12 [Example 20, [2-(3,4-dimethoxyphenyl)-6-methylimidazo[1,2-a]pyridin-3-yl]-(6-isocyanohexyl)-amine] | 85%
6 | CCCCNc1c(C2CCCCC2)nc2cccc(CCC)n12 [Example 32, Butyl-(2-cyclohexyl-5-propylimidazo[1,2-a]pyridin-3-yl)-amine] | 61%
7 | Cc1ccn2c(NC(C)(C)CC(C)(C)C)c(C)nc2c1 [Example 21, (2,7-dimethylimidazo[1,2-a]pyridin-3-yl)-(1,1,3,3-tetramethylbutyl)-amine] | 109%
8 | Cc1cc(C)n2c(NC3CCCCC3)c(C)nc2c1 [Example 19, cyclohexyl-(2,5,7-trimethylimidazo[1,2-a]pyridin-3-yl)-amine] | 81%
9 | FC(F)(F)c1ccc2nc(-c3ccco3)c(NC3CCCCC3)n2c1 [Example 26, cyclohexyl-(2-furan-2-yl-6-trifluoromethylimidazo[1,2-a]pyridin-3-yl)-amine] | 70%
10 | CC(=O)N(c1c(-c2ccco2)nc2ccc(C(F)(F)F)cn12)C1CCCCC1 [Example 34, N-cylcohexyl-N-(2-furan-2-yl-6-trifluoromethylimidazo[1,2-a]pyridin-3-yl)-acetamide] | 72%

Second part, the compound after the results:

Row | α2-affinity, 10 μM | Compound
11 | 97% | Cc1cc(C)n2c(NC(C)(C)CC(C)(C)C)c(C)nc2c1 [Example 23, (1,1,3,3-tetramethylbutyl)-(2,5,7-trimethylimidazo[1,2-a]pyridin-3-yl)-amine]
12 | 67% | [C-]#[N+]CCCCCCNc1c(C2CCCCC2)nc2cccc(C)n12 [Example 16]
13 | 60% | COC(=O)CNc1c(C2CCCCC2)nc2c(OCc3ccccc3)cccn12 [Example 30, (8-benzyloxy-2-cyclohexylimidazo[1,2-a]pyridin-3-ylamino)-acetic acid methyl ester]
14 | 69% | Cc1nc2c(C)cccn2c1NC(C)(C)CC(C)(C)C [Example 22, (2,8-dimethyl-imidazo[1,2-a]pyridin-3-yl)-(1,1,3,3-tetramethylbutyl)-amine]
15 | 61% | COC(=O)CNc1c(C)nc2c(OCc3ccccc3)cccn12 [Example 31, (8-benzyloxy-2-methylimidazo[1,2-a]pyridin-3-ylamino)-acetic acid methyl ester]
16 | 65% | Cc1ccc2nc(C)c(NC(C)(C)CC(C)(C)C)n2c1 [Example 17, (2,6-dimethylimidazo[1,2-a]pyridin-3-yl)-(1,1,3,3-tetramethylbutyl)-amine]
17 | 51% | [C-]#[N+]CCCCCCNc1c(-c2ccccc2OC)nc2ccc(C)cn12 [Example 25, (6-isocyanohexyl)-[2-(2-methoxyphenyl)-6-methyl-imidazo[1,2-a]pyridin-3-yl]-amine]
18 | 75% | CC(=O)N(c1c(C2CCCCC2)nc2c(OCc3ccccc3)cccn12)C1CCCCC1 [Example 35, N-(8-benzyloxy-2-cyclohexylimidazo[1,2-a]pyridin-3-yl)-N-cyclohexyl-acetamide]
